Measurements from PubChem BioAssay (NCI).
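Following 48 hours of exposure in 96-well plates, responses at five concentrations were used to interpolate endpoints linearly. Abbreviation: GI50, concentration required for 50% inhibition of growth. The concentration for full growth arrest is given as TGI.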

Experiments:
Experiment in all cases: inhibition of tumour cell growth, NCI panel, 48 h
786-0 renal = tested on: 786-0 renal
A498 renal = tested on: A498 renal
A549 NSCLC = tested on: A549 NSCLC
ACHN renal = tested on: ACHN renal
BT-549 breast = tested on: BT-549 breast
CAKI-1 renal = tested on: CAKI-1 renal
CCRF-CEM leukemia = tested on: CCRF-CEM leukemia
COLO 205 colon = tested on: COLO 205 colon
DU-145 prostate = tested on: DU-145 prostate
EKVX NSCLC = tested on: EKVX NSCLC
HCC-2998 colon = tested on: HCC-2998 colon
HCT-116 colon = tested on: HCT-116 colon
HCT-15 colon = tested on: HCT-15 colon
HL-60(TB) leukemia = tested on: HL-60(TB) leukemia
HOP-62 NSCLC = tested on: HOP-62 NSCLC
HOP-92 NSCLC = tested on: HOP-92 NSCLC
HS 578T breast = tested on: HS 578T breast
HT29 colon = tested on: HT29 colon
IGROV1 ovarian = tested on: IGROV1 ovarian
K-562 leukemia = tested on: K-562 leukemia
KM12 colon = tested on: KM12 colon
LOX IMVI melanoma = tested on: LOX IMVI melanoma
M14 melanoma = tested on: M14 melanoma
MALME-3M melanoma = tested on: MALME-3M melanoma
MCF7 breast = tested on: MCF7 breast
MDA-MB-231 breast = tested on: MDA-MB-231 breast
MDA-MB-435 = tested on: MDA-MB-435
MOLT-4 leukemia = tested on: MOLT-4 leukemia
NCI-H226 lung = tested on: NCI-H226 lung
NCI-H23 lung = tested on: NCI-H23 lung
NCI-H460 lung = tested on: NCI-H460 lung
NCI-H522 lung = tested on: NCI-H522 lung
NCI/ADR-RES ovarian = tested on: NCI/ADR-RES ovarian
OVCAR-3 ovarian = tested on: OVCAR-3 ovarian
OVCAR-4 ovarian = tested on: OVCAR-4 ovarian
OVCAR-5 ovarian = tested on: OVCAR-5 ovarian
OVCAR-8 ovarian = tested on: OVCAR-8 ovarian
PC-3 prostate = tested on: PC-3 prostate
RPMI-8226 leukemia = tested on: RPMI-8226 leukemia
RXF 393 renal = tested on: RXF 393 renal
SF-268 CNS = tested on: SF-268 CNS
SF-295 CNS = tested on: SF-295 CNS
SF-539 CNS = tested on: SF-539 CNS
SK-MEL-2 melanoma = tested on: SK-MEL-2 melanoma
SK-MEL-28 melanoma = tested on: SK-MEL-28 melanoma
SK-MEL-5 melanoma = tested on: SK-MEL-5 melanoma
SK-OV-3 ovarian = tested on: SK-OV-3 ovarian
SN12C renal = tested on: SN12C renal
SNB-19 CNS = tested on: SNB-19 CNS
SNB-75 CNS = tested on: SNB-75 CNS
SW-620 colon = tested on: SW-620 colon
T-47D breast = tested on: T-47D breast
TK-10 renal = tested on: TK-10 renal
U251 CNS = tested on: U251 CNS
UACC-257 melanoma = tested on: UACC-257 melanoma
UACC-62 melanoma = tested on: UACC-62 melanoma
UO-31 renal = tested on: UO-31 renal

SMILES: NC(=O)[C@@H](CCC(F)(F)F)N(Cc1ccc(-c2ncon2)cc1F)S(=O)(=O)c1ccc(Cl)cc1
- GI50 (786-0 renal): > 40.5 µM
- TGI (786-0 renal): > 59 µM
- GI50 (A498 renal): 8.86 µM
- TGI (A498 renal): > 62.7 µM
- GI50 (A549 NSCLC): 36.7 µM
- TGI (A549 NSCLC): > 100 µM
- GI50 (ACHN renal): 26.7 µM
- TGI (ACHN renal): > 73.2 µM
- GI50 (BT-549 breast): 32.6 µM
- TGI (BT-549 breast): > 59 µM
- GI50 (CAKI-1 renal): 13.7 µM
- TGI (CAKI-1 renal): > 62.8 µM
- GI50 (CCRF-CEM leukemia): 20.8 µM
- TGI (CCRF-CEM leukemia): > 100 µM
- GI50 (COLO 205 colon): 27.4 µM
- TGI (COLO 205 colon): > 57.2 µM
- GI50 (DU-145 prostate): > 67.1 µM
- TGI (DU-145 prostate): > 100 µM
- GI50 (EKVX NSCLC): > 90.3 µM
- TGI (EKVX NSCLC): > 100 µM
- GI50 (HCC-2998 colon): > 68.9 µM
- TGI (HCC-2998 colon): > 100 µM
- GI50 (HCT-116 colon): 35.3 µM
- TGI (HCT-116 colon): > 61.7 µM
- GI50 (HCT-15 colon): 69.6 µM
- TGI (HCT-15 colon): > 100 µM
- GI50 (HL-60(TB) leukemia): 23.7 µM
- TGI (HL-60(TB) leukemia): 65.6 µM
- GI50 (HOP-62 NSCLC): > 43.2 µM
- TGI (HOP-62 NSCLC): > 64.5 µM
- GI50 (HOP-92 NSCLC): 8.88 µM
- TGI (HOP-92 NSCLC): 43.3 µM
- GI50 (HS 578T breast): 28.8 µM
- TGI (HS 578T breast): > 100 µM
- GI50 (HT29 colon): 21.3 µM
- TGI (HT29 colon): > 58.7 µM
- GI50 (IGROV1 ovarian): 51.7 µM
- TGI (IGROV1 ovarian): > 100 µM
- GI50 (K-562 leukemia): 34.9 µM
- TGI (K-562 leukemia): > 100 µM
- GI50 (KM12 colon): 23.1 µM
- TGI (KM12 colon): > 56.3 µM
- GI50 (LOX IMVI melanoma): 29.9 µM
- TGI (LOX IMVI melanoma): > 100 µM
- GI50 (M14 melanoma): 22.2 µM
- TGI (M14 melanoma): > 52.6 µM
- GI50 (MALME-3M melanoma): 32 µM
- TGI (MALME-3M melanoma): > 73.7 µM
- GI50 (MCF7 breast): 28.4 µM
- TGI (MCF7 breast): > 100 µM
- GI50 (MDA-MB-231 breast): 36.3 µM
- TGI (MDA-MB-231 breast): > 100 µM
- GI50 (MDA-MB-435): 21.3 µM
- TGI (MDA-MB-435): > 59.1 µM
- GI50 (MOLT-4 leukemia): 16.3 µM
- TGI (MOLT-4 leukemia): 54.7 µM
- GI50 (NCI-H226 lung): > 54.1 µM
- TGI (NCI-H226 lung): > 100 µM
- GI50 (NCI-H23 lung): 36.1 µM
- TGI (NCI-H23 lung): > 100 µM
- GI50 (NCI-H460 lung): 30.6 µM
- TGI (NCI-H460 lung): > 100 µM
- GI50 (NCI-H522 lung): 48.8 µM
- TGI (NCI-H522 lung): > 100 µM
- GI50 (NCI/ADR-RES ovarian): 47.5 µM
- TGI (NCI/ADR-RES ovarian): > 100 µM
- GI50 (OVCAR-3 ovarian): 23.6 µM
- TGI (OVCAR-3 ovarian): > 60.5 µM
- GI50 (OVCAR-4 ovarian): 44.5 µM
- TGI (OVCAR-4 ovarian): > 100 µM
- GI50 (OVCAR-5 ovarian): > 49.5 µM
- TGI (OVCAR-5 ovarian): > 100 µM
- GI50 (OVCAR-8 ovarian): 46.8 µM
- TGI (OVCAR-8 ovarian): > 100 µM
- GI50 (PC-3 prostate): 12.6 µM
- TGI (PC-3 prostate): > 100 µM
- GI50 (RPMI-8226 leukemia): 14.5 µM
- TGI (RPMI-8226 leukemia): 64.4 µM
- GI50 (RXF 393 renal): 20.8 µM
- TGI (RXF 393 renal): > 100 µM
- GI50 (SF-268 CNS): 39.6 µM
- TGI (SF-268 CNS): > 100 µM
- GI50 (SF-295 CNS): 35.3 µM
- TGI (SF-295 CNS): > 100 µM
- GI50 (SF-539 CNS): 31 µM
- TGI (SF-539 CNS): > 62.6 µM
- GI50 (SK-MEL-2 melanoma): 29.7 µM
- TGI (SK-MEL-2 melanoma): > 63.9 µM
- GI50 (SK-MEL-28 melanoma): 45.5 µM
- TGI (SK-MEL-28 melanoma): > 100 µM
- GI50 (SK-MEL-5 melanoma): 15.8 µM
- TGI (SK-MEL-5 melanoma): 33.2 µM
- GI50 (SK-OV-3 ovarian): > 50.7 µM
- TGI (SK-OV-3 ovarian): > 89.9 µM
- GI50 (SN12C renal): 25.8 µM
- TGI (SN12C renal): > 57.8 µM
- GI50 (SNB-19 CNS): > 50.6 µM
- TGI (SNB-19 CNS): > 100 µM
- GI50 (SNB-75 CNS): 53.3 µM
- TGI (SNB-75 CNS): > 100 µM
- GI50 (SW-620 colon): > 59.9 µM
- TGI (SW-620 colon): > 100 µM
- GI50 (T-47D breast): 21.3 µM
- TGI (T-47D breast): > 78.7 µM
- GI50 (TK-10 renal): 21 µM
- TGI (TK-10 renal): > 63.5 µM
- GI50 (U251 CNS): > 49 µM
- TGI (U251 CNS): > 100 µM
- GI50 (UACC-257 melanoma): 27.3 µM
- TGI (UACC-257 melanoma): > 85.6 µM
- GI50 (UACC-62 melanoma): 18.2 µM
- TGI (UACC-62 melanoma): > 50.7 µM
- GI50 (UO-31 renal): 13.1 µM
- TGI (UO-31 renal): > 100 µM
